Reference: PubChem BioAssay (NCI)
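Compound exposure: 48 hours, 5 concentrations, 96-well plates. At the GI50, growth is halved. TGI denotes the concentration required for complete inhibition of growth.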

Assays:
Experiment in all cases: growth of human tumour cells (NCI), 48 h; in the data active = GI50 below about 0.43 µM; inactive = the rest
[1] = system: 786-0 renal
[2] = system: A498 renal
[3] = system: A549 NSCLC
[4] = system: ACHN renal
[5] = system: CAKI-1 renal
[6] = system: CCRF-CEM leukemia
[7] = system: COLO 205 colon
[8] = system: DLD-1 colon
[9] = system: DMS 114 small cell lung
[10] = system: DMS 273 small cell lung
[11] = system: EKVX NSCLC
[12] = system: HCC-2998 colon
[13] = system: HCT-116 colon
[14] = system: HCT-15 colon
[15] = system: HL-60(TB) leukemia
[16] = system: HOP-18 NSCLC
[17] = system: HOP-62 NSCLC
[18] = system: HOP-92 NSCLC
[19] = system: HT29 colon
[20] = system: IGROV1 ovarian
[21] = system: K-562 leukemia
[22] = system: KM12 colon
[23] = system: KM20L2 colon
[24] = system: LOX IMVI melanoma
[25] = system: LXFL 529 NSCLC
[26] = system: M14 melanoma
[27] = system: M19-MEL melanoma
[28] = system: MALME-3M melanoma
[29] = system: MOLT-4 leukemia
[30] = system: NCI-H226 lung
[31] = system: NCI-H23 lung
[32] = system: NCI-H460 lung
[33] = system: NCI-H522 lung
[34] = system: OVCAR-3 ovarian
[35] = system: OVCAR-4 ovarian
[36] = system: OVCAR-5 ovarian
[37] = system: OVCAR-8 ovarian
[38] = system: RPMI-8226 leukemia
[39] = system: RXF 393 renal
[40] = system: SF-268 CNS
[41] = system: SF-295 CNS
[42] = system: SF-539 CNS
[43] = system: SK-MEL-2 melanoma
[44] = system: SK-MEL-28 melanoma
[45] = system: SK-MEL-5 melanoma
[46] = system: SK-OV-3 ovarian
[47] = system: SN12C renal
[48] = system: SNB-19 CNS
[49] = system: SNB-75 CNS
[50] = system: SNB-78 CNS
[51] = system: SR leukemia
[52] = system: SW-620 colon
[53] = system: TK-10 renal
[54] = system: U251 CNS
[55] = system: UACC-257 melanoma
[56] = system: UACC-62 melanoma
[57] = system: UO-31 renal
[58] = system: XF 498 CNS
[59] = system: RXF-631 renal

C=Cc1cncc(C#N)c1CCc1c(C#N)cncc1C=C
inactive: GI50 [1] > 100 µM | GI50 [2] > 100 µM | GI50 [3] > 100 µM | GI50 [4] > 100 µM | GI50 [5] > 10 µM | GI50 [6] > 100 µM | GI50 [8] > 100 µM | GI50 [10] > 100 µM | GI50 [11] > 10 µM | GI50 [12] > 100 µM | GI50 [13] > 100 µM | GI50 [14] > 100 µM | GI50 [15] > 100 µM | GI50 [17] > 100 µM | GI50 [19] > 100 µM | GI50 [20] > 100 µM | GI50 [21] > 100 µM | GI50 [22] > 100 µM | GI50 [23] > 100 µM | GI50 [25] > 100 µM | GI50 [26] > 100 µM | GI50 [27] > 100 µM | GI50 [28] > 100 µM | GI50 [29] > 100 µM | GI50 [30] > 100 µM | GI50 [31] > 100 µM | GI50 [32] > 100 µM | GI50 [33] > 100 µM | GI50 [34] > 100 µM | GI50 [36] > 100 µM | GI50 [37] > 100 µM | GI50 [38] > 100 µM | GI50 [39] > 10 µM | GI50 [41] > 100 µM | GI50 [42] > 100 µM | GI50 [43] > 100 µM | GI50 [45] > 100 µM | GI50 [47] > 100 µM | GI50 [48] > 100 µM | GI50 [49] > 100 µM | GI50 [50] > 100 µM | GI50 [52] > 100 µM | GI50 [53] > 100 µM | GI50 [54] > 100 µM | GI50 [55] > 100 µM | GI50 [56] > 100 µM | GI50 [57] > 100 µM | GI50 [58] > 100 µM
> 10 µM: TGI [7] | TGI [9] | TGI [16] | TGI [18] | TGI [35] | TGI [40] | TGI [44] | TGI [46] | TGI [51]
> 100 µM: TGI [1] | TGI [2] | TGI [3] | TGI [4] | TGI [5] | TGI [6] | TGI [8] | TGI [10] | TGI [11] | TGI [12] | TGI [13] | TGI [14] | TGI [15] | TGI [17] | TGI [19] | TGI [20] | TGI [21] | TGI [22] | TGI [23] | TGI [24] | TGI [25] | TGI [26] | TGI [27] | TGI [28] | TGI [29] | TGI [30] | TGI [31] | TGI [32] | TGI [33] | TGI [34] | TGI [36] | TGI [37] | TGI [38] | TGI [39] | TGI [41] | TGI [42] | TGI [43] | TGI [45] | TGI [47] | TGI [48] | TGI [49] | TGI [50] | TGI [52] | TGI [53] | TGI [54] | TGI [55] | TGI [56] | TGI [57] | TGI [58]

CCOC(C[C@H](O[Si](C)(C)C(C)(C)C)[C@H]1COC(=S)S1)OCC
55.6 µM: TGI [33]
66.7 µM: TGI [58]
73.9 µM: TGI [10]
41.9 µM: TGI [19]
> 100 µM: TGI [1] | TGI [3] | TGI [4] | TGI [6] | TGI [7] | TGI [9] | TGI [11] | TGI [12] | TGI [13] | TGI [14] | TGI [15] | TGI [17] | TGI [21] | TGI [22] | TGI [23] | TGI [24] | TGI [25] | TGI [26] | TGI [27] | TGI [28] | TGI [29] | TGI [30] | TGI [31] | TGI [32] | TGI [34] | TGI [37] | TGI [38] | TGI [40] | TGI [41] | TGI [42] | TGI [44] | TGI [45] | TGI [47] | TGI [48] | TGI [51] | TGI [52] | TGI [53] | TGI [54] | TGI [55] | TGI [57]

COc1cc2ccnc3c2c(c1OC)-c1coc(SC)c1-3
52.1 µM: TGI [39]
> 100 µM: TGI [1] | TGI [2] | TGI [3] | TGI [4] | TGI [5] | TGI [7] | TGI [8] | TGI [10] | TGI [12] | TGI [13] | TGI [14] | TGI [15] | TGI [16] | TGI [17] | TGI [18] | TGI [19] | TGI [20] | TGI [21] | TGI [22] | TGI [23] | TGI [24] | TGI [25] | TGI [26] | TGI [27] | TGI [28] | TGI [29] | TGI [32] | TGI [33] | TGI [35] | TGI [36] | TGI [37] | TGI [38] | TGI [59] | TGI [40] | TGI [41] | TGI [42] | TGI [43] | TGI [45] | TGI [46] | TGI [47] | TGI [48] | TGI [50] | TGI [51] | TGI [52] | TGI [53] | TGI [54] | TGI [55] | TGI [56] | TGI [57]
79.3 µM: TGI [49]
